Results: ChEMBL document CHEMBL1201862, “PubChem BioAssay data set” (2004)
Counter-ions that a name gives are not always drawn. The source made the active and inactive calls.

Experiments:
CAAX prenyl protease 1 = CAAX prenyl protease 1 (Saccharomyces cerevisiae S288c, UniProt P47154); assay: yeast CAAX protease Ste24 inhibition – biochemical, S. cerevisiae, plate reader, cherry-pick, dose response (AID 488815)
CAAX prenyl protease 2 = molecular target: T1, CAAX prenyl protease 2 (Saccharomyces cerevisiae S288c, UniProt Q03530); format: biochemical
T1 sequence (Q03530 whole entry): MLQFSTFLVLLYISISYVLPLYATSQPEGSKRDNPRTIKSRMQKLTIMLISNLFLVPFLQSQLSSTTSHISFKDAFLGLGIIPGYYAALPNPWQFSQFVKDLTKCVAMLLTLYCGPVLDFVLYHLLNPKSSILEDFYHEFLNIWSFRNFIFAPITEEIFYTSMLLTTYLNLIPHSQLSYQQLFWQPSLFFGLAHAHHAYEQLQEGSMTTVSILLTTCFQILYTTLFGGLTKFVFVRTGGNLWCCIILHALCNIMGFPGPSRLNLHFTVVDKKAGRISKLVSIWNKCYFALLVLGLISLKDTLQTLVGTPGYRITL

[1] = T. cruzi infection blockers in NIH3T3 cells – beta-gal luminescence, NIH3T3 host cells, confirmation (AID 2630); format: functional, cell-based; conditions: Mus musculus
Cytochrome P450 3A4 = Cytochrome P450 3A4 (Homo sapiens, UniProt P08684);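 also: CYP3A4 tested as one member of a cytochrome P450 panel screen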
Cytochrome P450 2C9 = Cytochrome P450 2C9 (Homo sapiens, UniProt P11712)
Cytochrome P450 2C19 = Cytochrome P450 2C19 (Homo sapiens, UniProt P33261); assay: Cytochrome panel assay with activity outcomes. Panel member name: p450-cyp2c19 Compounds with AC50 equal or less than 10 uM are considered active; format: functional; conditions: read-out: AC50
Cytochrome P450 1A2 = molecular target: T2, Cytochrome P450 1A2 (Homo sapiens, UniProt P05177);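 also: PubChem cytochrome P450 panel assay, CYP1A2 panel member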
T2 sequence (P05177 whole entry): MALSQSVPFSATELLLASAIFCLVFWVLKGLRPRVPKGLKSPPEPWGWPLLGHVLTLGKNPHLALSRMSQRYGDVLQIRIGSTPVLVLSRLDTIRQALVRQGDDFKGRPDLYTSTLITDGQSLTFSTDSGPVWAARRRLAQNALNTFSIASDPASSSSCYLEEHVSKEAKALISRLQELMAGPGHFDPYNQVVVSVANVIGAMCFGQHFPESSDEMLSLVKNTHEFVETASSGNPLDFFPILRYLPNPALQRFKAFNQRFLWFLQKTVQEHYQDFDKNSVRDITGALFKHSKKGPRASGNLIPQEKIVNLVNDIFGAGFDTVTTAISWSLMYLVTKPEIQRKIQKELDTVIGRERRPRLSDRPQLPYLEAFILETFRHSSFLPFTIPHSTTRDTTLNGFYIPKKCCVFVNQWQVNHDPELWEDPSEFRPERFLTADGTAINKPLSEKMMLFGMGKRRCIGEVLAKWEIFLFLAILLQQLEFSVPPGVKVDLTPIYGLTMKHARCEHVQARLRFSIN

[2] = Vero E6 cell cytotoxicity, dose response, cytotoxicity control for non-replicating M. tuberculosis project, secondary assay (AID 492998); format: functional, VeroE6; conditions: Vero C1008
HEK293 [3] = assay: cells; conditions: Homo sapiens
[4] = HEK-293T cell viability reduction – luminescence, B-cell screen hits, cytotoxicity control for BCR NF-kB inhibitor project, dose response (AID 489021); format: functional, cell-based;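 also: HEK-293T cells carrying an NF-kB luciferase reporter; cells exposed to compound for about 14 hours before viability readout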
HEK293 [5] = assay: cells; conditions: Homo sapiens; remark: listed apart in the source
[6] = THP-1 cell cytotoxicity, dose response, cytotoxicity control for non-replicating M. tuberculosis project (AID 489025); format: functional
[7] = viability of uninfected HEp-2 cells – cell-based, HTS, cytotoxicity control for RSV inhibitor project, dose response (AID 2410); format: functional; conditions: human respiratory syncytial virus
[8] = viability of HCT116 lacking mutant beta-catenin – cell-based, human colon tumor, dose response (AID 1045); format: functional;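 also: HCT116 colon tumor cells with beta catenin knocked out; cells exposed to compound for 60 hours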
[9] = viability of PTEN-deleted HCT116 cells – cell-based, HCT116 PTEN knockout, dose response (AID 1047); format: functional;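 also: HCT116 colon tumor cells with PTEN knocked out; cells exposed to compound for 60 hours before readout; potency for loss of cell viability measured by luminescence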
[10] = molecular target: Dual specificity tyrosine-phosphorylation-regulated kinase 1A (Rattus norvegicus, UniProt Q63470); format: biochemical, Homo sapiens
[11] = HEK-293T viability loss, compound-treated – cell-based, uHTS hits, cytotoxicity control for B/T-cell NF-kB inhibitor project, dose response (AID 489019); format: functional;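 also: IC50 reflects cytotoxicity as loss of cell viability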
[12] = HIV-1 AD8 envelope cell-cell fusion blockers – cherry-pick, dose response (AID 652062); format: functional, cell-based;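 also: luciferase signal from cell-cell fusion driven by HIV-1 clade B AD8 Env; potency is for inhibitors of fusion seen as a drop in luminescence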
[13] = blockers of HIV-1 ZM109 envelope-driven cell-cell fusion – HeLa effector, CEM target cells, luciferase, cherry-pick, dose response (AID 652058); format: functional, cell-based;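 also: luciferase signal from HIV-1 Env mediated cell-cell fusion of effector and target cells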
[14] = blockers of HIV-1 envelope-mediated cell-cell fusion – cherry-pick, dose response (AID 652057); format: functional, cell-based
[15] = off-target signal loss in HeLa-CEM21 co-culture – HeLa F-luc CTL cells, cherry-picked, counter-screen for HIV-1 Env fusion inhibitor project, dose response (AID 652040); format: functional, cell-based;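 also: potency for signal decrease marking cytotoxic or nonspecific inhibition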
Jurkat = assay: blockers of NF-kB activation in T cells – Jurkat, luciferase reporter, luminescence, B- and T-cell, dose response (AID 489004); format: functional, cell-based; conditions: Homo sapiens;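 also: NF-kB luciferase reporter Jurkat cells stimulated with PMA plus ionomycin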
[16] = blockade of melanocortin 4 receptor signaling – cell-based, plate reader, cherry pick, counter-screen for LGR2 antagonist project, dose response (AID 743444); format: functional;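 also: transfected HEK 293 cells stimulated with alpha-MSH peptide; potency of inhibitors of the alpha-MSH evoked signal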
[17] = molecular target: T3, Microphthalmia-associated transcription factor (Homo sapiens, UniProt O75030); assay: reducers of TRPM1 reporter luminescence, concentration series – cell-based, SK-MEL-5, cherry-picked, set 3, MITF inhibitor project, dose response (AID 493073); format: functional;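 also: SK-MEL-5 melanoma cells with luciferase driven by the MITF target TRPM1 promoter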
T3 sequence (O75030 whole entry): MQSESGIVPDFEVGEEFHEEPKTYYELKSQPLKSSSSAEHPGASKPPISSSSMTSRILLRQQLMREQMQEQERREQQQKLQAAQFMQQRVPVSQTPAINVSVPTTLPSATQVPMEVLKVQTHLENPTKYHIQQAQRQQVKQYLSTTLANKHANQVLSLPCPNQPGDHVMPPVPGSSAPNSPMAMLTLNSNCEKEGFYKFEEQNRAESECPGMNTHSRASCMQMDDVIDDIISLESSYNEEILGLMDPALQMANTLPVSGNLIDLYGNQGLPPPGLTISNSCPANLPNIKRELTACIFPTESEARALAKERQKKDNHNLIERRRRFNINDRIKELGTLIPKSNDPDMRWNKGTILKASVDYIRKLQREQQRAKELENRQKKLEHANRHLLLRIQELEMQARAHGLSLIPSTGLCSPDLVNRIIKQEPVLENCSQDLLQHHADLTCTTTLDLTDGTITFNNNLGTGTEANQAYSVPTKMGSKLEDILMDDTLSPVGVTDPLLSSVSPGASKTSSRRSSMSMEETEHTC

[18] = molecular target: T4, Kappa-type opioid receptor (Homo sapiens, UniProt P41145); assay: SAR analysis of small molecule agonists of the kappa opioid receptor via a luminescent beta-arrestin assay - Set 2. [Related pubchem assays (depositor defined):AID1777, AID1785, AID1786, AID1966, AID2133, AID2136, AID2284, AID449737]; format: functional
[19] = molecular target: T4, Kappa-type opioid receptor; assay: SAR analysis of Agonists of the Kappa Opioid Receptor (KOR) using an Image-Based Assay - Set 2. [Related pubchem assays (depositor defined):AID1777, AID1786, AID1966, AID2133, AID2136, AID2284, AID2285, AID2359]; format: functional
Mu-type opioid receptor [20] = molecular target: T5, Mu-type opioid receptor (Homo sapiens, UniProt P35372); assay: SAR Analysis of Antagonists of the MOR Receptor using an Image-Based Assay - Set 2. [Related pubchem assays (depositor defined):AID1777, AID1785, AID1786, AID1966, AID2133, AID2136, AID2284, AID2285, AID2420]; format: functional
[21] = molecular target: T6, Delta-type opioid receptor (Homo sapiens, UniProt P41143); assay: SAR Analysis of Agonists of the DOR Receptor using an Image-Based Assay - Set 2. [Related pubchem assays (depositor defined):AID1777, AID1785, AID1786, AID1966, AID2133, AID2136, AID2284, AID2285, AID2370]; format: functional
[22] = molecular target: T4, Kappa-type opioid receptor; assay: SAR analysis of Antagonists of the Kappa Opioid Receptor (KOR) using an Image-Based Assay - Set 2. [Related pubchem assays (depositor defined):AID1777, AID1785, AID1786, AID1966, AID2133, AID2136, AID2284, AID2285, AID2348]; format: functional
[23] = molecular target: T6, Delta-type opioid receptor; assay: SAR Analysis of Antagonists of the DOR Receptor using an Image-Based Assay - Set 2. [Related pubchem assays (depositor defined):AID1777, AID1785, AID1786, AID1966, AID2133, AID2136, AID2284, AID2285, AID2357]; format: functional
Mu-type opioid receptor [24] = molecular target: T5, Mu-type opioid receptor; assay: SAR Analysis of Agonists of the MOR Receptor using an Image-Based Assay - Set 2. [Related pubchem assays (depositor defined):AID1777, AID1785, AID1786, AID1966, AID2133, AID2136, AID2284, AID2285, AID2352]; format: functional
[25] = molecular target: Glucose-6-phosphate 1-dehydrogenase (Homo sapiens, UniProt P11413); assay: inhibition of Homo sapiens G6PD, dose series – biochemical, fluorescence, selectivity assay for P. falciparum G6PD inhibitor project, dose response (AID 504792); format: functional
[26] = molecular target: Voltage-gated inwardly rectifying potassium channel KCNH2 (Homo sapiens, UniProt Q12809); conditions: Potency;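 also: confirmatory quantitative high-throughput screen measuring inhibition of hERG channel activity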
Chain of Voltage-gated inwardly rectifying potassium channel KCNH2 (Q12809 whole entry): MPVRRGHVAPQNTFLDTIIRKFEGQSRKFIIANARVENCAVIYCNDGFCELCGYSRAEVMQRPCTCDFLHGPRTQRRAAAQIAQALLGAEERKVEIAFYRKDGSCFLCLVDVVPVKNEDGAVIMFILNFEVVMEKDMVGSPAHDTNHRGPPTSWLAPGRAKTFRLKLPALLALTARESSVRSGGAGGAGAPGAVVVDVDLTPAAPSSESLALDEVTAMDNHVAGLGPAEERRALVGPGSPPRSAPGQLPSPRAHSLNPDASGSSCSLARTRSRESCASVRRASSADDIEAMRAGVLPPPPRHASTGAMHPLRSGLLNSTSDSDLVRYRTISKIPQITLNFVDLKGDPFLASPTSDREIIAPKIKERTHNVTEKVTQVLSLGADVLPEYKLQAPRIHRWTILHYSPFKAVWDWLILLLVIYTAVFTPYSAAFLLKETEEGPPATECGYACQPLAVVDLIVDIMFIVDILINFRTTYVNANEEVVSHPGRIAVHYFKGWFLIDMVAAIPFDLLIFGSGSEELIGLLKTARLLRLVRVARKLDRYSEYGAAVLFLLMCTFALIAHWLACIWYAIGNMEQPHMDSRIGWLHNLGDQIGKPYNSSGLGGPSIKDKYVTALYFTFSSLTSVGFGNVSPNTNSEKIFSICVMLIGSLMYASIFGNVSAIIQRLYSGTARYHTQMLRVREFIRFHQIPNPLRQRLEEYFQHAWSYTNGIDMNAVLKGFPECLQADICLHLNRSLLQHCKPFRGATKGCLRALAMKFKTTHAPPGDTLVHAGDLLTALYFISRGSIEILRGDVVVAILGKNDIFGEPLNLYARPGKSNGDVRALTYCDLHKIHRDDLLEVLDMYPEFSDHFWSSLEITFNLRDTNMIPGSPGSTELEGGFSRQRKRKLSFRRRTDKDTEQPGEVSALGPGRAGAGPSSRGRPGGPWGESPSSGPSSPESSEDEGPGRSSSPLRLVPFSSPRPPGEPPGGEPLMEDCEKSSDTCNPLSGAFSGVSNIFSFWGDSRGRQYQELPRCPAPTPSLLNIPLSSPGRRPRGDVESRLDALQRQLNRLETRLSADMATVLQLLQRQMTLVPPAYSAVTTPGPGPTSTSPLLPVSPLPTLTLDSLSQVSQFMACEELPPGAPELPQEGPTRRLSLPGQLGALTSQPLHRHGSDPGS

T4 sequence (P41145 whole entry): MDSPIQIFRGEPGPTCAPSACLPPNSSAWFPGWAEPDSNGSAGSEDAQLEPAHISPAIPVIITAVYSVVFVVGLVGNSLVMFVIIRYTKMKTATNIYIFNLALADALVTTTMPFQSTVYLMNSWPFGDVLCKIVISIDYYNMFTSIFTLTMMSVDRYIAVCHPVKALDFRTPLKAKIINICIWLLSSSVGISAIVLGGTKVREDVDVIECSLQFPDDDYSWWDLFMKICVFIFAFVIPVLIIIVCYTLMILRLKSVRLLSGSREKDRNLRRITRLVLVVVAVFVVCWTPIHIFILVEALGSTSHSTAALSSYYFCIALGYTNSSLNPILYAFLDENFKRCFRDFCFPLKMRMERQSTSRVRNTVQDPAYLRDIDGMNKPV
T6 sequence (P41143 whole entry): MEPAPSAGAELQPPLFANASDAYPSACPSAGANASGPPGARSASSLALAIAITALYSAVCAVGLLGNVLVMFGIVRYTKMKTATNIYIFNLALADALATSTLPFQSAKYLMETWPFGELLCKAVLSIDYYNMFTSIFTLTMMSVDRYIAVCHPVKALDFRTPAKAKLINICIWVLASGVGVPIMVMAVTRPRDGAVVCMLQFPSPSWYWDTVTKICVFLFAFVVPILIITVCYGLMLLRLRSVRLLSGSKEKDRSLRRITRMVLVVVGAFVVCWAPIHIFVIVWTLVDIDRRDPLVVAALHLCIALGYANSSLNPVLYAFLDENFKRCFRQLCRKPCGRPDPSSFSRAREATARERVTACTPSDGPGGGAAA
Chain of CAAX prenyl protease 1 (P47154 whole entry): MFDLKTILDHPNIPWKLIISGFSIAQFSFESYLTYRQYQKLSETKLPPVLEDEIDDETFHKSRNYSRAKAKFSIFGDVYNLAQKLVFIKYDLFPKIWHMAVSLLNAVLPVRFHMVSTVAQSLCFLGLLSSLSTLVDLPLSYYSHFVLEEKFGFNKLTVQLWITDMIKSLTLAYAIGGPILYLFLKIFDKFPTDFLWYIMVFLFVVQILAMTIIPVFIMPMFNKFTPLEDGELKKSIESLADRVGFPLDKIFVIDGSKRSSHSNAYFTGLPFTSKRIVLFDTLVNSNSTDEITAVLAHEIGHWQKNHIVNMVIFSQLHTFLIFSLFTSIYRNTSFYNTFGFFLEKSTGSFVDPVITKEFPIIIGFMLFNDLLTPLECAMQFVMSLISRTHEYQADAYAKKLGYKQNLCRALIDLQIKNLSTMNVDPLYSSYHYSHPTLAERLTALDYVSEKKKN
Chain of Glucose-6-phosphate 1-dehydrogenase (P11413 whole entry): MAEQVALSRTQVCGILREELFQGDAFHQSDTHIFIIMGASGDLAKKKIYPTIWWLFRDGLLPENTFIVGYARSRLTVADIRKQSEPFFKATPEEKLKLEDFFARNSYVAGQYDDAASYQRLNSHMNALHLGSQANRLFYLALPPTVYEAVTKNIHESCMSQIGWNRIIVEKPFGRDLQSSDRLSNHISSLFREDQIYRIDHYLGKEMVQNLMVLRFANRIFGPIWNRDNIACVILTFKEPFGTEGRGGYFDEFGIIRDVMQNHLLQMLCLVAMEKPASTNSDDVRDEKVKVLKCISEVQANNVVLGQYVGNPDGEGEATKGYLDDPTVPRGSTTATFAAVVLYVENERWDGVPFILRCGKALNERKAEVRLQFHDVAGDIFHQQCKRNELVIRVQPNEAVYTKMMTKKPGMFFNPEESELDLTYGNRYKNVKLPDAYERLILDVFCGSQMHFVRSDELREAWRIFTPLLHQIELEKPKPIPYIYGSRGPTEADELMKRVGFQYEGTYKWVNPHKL
T5 sequence (P35372 whole entry): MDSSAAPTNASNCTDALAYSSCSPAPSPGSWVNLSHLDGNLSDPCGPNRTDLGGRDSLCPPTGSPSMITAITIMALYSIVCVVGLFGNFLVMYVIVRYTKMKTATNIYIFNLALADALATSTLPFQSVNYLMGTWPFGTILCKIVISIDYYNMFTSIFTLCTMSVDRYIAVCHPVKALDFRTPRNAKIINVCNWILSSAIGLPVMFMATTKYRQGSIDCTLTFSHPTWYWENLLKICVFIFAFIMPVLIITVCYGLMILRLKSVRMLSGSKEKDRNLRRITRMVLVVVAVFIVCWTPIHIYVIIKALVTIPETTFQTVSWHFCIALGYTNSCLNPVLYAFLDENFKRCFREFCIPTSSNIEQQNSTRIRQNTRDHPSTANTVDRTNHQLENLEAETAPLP
Chain of Cytochrome P450 3A4 (P08684 whole entry): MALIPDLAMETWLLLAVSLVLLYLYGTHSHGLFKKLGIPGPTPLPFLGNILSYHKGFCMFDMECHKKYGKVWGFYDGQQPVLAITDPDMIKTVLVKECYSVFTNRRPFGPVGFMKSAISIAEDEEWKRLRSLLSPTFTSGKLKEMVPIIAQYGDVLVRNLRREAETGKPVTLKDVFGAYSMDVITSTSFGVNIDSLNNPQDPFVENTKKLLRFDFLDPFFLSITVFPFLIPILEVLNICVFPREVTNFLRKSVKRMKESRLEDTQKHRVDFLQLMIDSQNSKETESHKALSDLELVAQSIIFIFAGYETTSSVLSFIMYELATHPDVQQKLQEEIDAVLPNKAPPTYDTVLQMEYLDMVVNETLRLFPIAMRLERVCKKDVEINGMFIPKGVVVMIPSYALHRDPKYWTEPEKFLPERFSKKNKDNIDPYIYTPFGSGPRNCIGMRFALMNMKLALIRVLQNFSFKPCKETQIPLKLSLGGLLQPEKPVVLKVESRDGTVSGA
Chain of Cytochrome P450 2C9 (P11712 whole entry): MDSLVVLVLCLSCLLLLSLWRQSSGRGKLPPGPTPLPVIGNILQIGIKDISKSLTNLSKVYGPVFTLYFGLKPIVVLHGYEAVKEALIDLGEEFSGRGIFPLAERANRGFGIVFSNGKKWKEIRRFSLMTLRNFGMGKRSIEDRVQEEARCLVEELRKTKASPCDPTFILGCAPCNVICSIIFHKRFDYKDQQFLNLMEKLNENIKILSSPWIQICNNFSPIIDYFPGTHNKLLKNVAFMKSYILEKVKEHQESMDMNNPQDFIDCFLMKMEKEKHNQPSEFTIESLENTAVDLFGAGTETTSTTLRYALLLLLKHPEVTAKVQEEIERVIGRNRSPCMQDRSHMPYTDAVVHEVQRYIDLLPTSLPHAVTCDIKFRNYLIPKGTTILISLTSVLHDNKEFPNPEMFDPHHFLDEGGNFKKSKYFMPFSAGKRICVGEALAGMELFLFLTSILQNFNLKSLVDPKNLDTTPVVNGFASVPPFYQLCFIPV
Chain of Cytochrome P450 2C19 (P33261 whole entry): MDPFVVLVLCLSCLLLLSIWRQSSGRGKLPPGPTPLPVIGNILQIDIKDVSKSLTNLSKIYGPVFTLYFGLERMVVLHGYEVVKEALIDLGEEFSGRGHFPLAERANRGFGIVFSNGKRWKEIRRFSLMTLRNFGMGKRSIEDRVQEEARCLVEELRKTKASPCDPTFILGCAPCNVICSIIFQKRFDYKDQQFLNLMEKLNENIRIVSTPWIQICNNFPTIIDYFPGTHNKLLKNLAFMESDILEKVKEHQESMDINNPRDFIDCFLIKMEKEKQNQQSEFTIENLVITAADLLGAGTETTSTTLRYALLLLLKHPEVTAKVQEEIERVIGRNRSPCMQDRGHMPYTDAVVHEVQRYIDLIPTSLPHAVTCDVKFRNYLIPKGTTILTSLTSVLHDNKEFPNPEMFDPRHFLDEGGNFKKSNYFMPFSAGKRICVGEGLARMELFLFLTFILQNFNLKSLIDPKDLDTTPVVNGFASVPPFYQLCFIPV

For `NC(=O)CSC1=Nc2ccccc2C2=NC(c3ccccc3)C(=O)N12` (configuration not stated), the AC50 (CAAX prenyl protease 1) was 5.41 µM (active) and the AC50 (CAAX prenyl protease 2) was 4.61 µM (active).

With `Cc1cc(C)n(CC(=O)N2CCCC(C(=O)c3cccc(OC(C)C)c3)C2)n1` (configuration not stated) the EC50 [1] was 14.1 µM (active).

With `CCCCC1(C)OC(=O)C(=Cc2ccc(N(C)C)cc2)C(=O)O1` (configuration not stated) the AC50 (Cytochrome P450 3A4) was 1 µM (inconclusive), the AC50 (Cytochrome P450 2C9) was “inconclusive” and the AC50 (Cytochrome P450 2C19) was 28.2 µM (inconclusive). The AC50 (Cytochrome P450 1A2) was 14.1 µM (inconclusive).

For `CC1=CC(C)(C)Nc2ccc(OC(=O)CN3C(=O)c4ccccc4C3=O)cc21`, the CC50 [2] was 13.6 µM (active), the EC50 (HEK293 [3]) was > 59.6 µM (inactive) and the IC50 [4] was 58.6 µM (inactive). The EC50 (HEK293 [5]) was > 59.6 µM (inactive), the CC50 [6] was 6.68 µM (active) and the CC50 [7] was 6.94 µM (active). The EC50 [8] was 5.85 µM (active) and the EC50 [9] was 9.51 µM (active).

With `Cc1ccc2nc(NC(=O)CCCC(=O)O)sc2c1` the AC50 [10] was 4.63 µM (active), the IC50 [11] was > 80 µM (inactive) and the AC50 [12] was 1.02 µM (active). For the same compound, the AC50 [13] was 0.62 µM (active), the AC50 [14] was 1.42 µM (active) and the AC50 [15] was 2.82 µM (active). For the same compound, the IC50 (Jurkat) was 0.8 µM (active), the AC50 [16] was 44.1 µM (active) and the AC50 [17] was 12.1 µM (active).

For `Cc1ccc(CSc2nnc(-c3ccccn3)n2Cc2cccs2)cc1`, the EC50 [18] was 3.59 µM (active), the EC50 [19] was 2.38 µM (active) and the IC50 (Mu-type opioid receptor [20]) was > 32 µM (inactive). The EC50 [21] was > 32 µM (inactive), the IC50 [22] was > 32 µM (inactive) and the IC50 [23] was > 32 µM (inactive). For the same compound, the EC50 (Mu-type opioid receptor [24]) was > 32 µM (inactive).

With `C[N+]1([C@H](CO)Cc2c[nH]c3ccccc23)Cc2ccccc2C1.O=S(=O)([O-])c1ccccc1` the AC50 (Cytochrome P450 1A2) was “inactive”.

In the case of `Cc1[nH]c2ccccc2c1/C=N/NC(=O)c1cccc(S(=O)(=O)Nc2ccccc2Cl)c1`, the IC50 [25] is reported as > 80 µM (inactive).

In the case of `COc1ccc(NC(C)C(=O)N/N=C/c2cc(Br)ccc2OC)cc1` (configuration not stated), the IC50 [25] is reported as > 80 µM (inactive).

In the case of `CC(CCc1ccccc1)NCC(O)c1ccc(O)c(C(N)=O)c1` (configuration not stated) [LABETALOL HYDROCHLORIDE], the AC50 (CAAX prenyl protease 1) is reported as 7.7 µM (active), the AC50 [26] is reported as 15.8 µM (inconclusive) and the AC50 (CAAX prenyl protease 2) is reported as 15.3 µM (active).
